Key:
[1] = tested on: carbachol- or histamine-induced bronchoconstriction; assay: Bronchodilator Test Method I, anesthetized dog, intravenous activity; assay type: in vivo; conditions: Canis lupus familiaris, read-out: Bronchodilatation; for inhibition in vivo at 0.07 mg/kg: 70 mcg/kg i.v.; for inhibition in vivo at 0.14 mg/kg: 140 mcg/kg i.v.; for inhibition in vivo at 0.28 mg/kg: 280 mcg/kg i.v.
Procedure, shortened: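 Pentobarbital-anesthetized (30 mg/kg i.v.), open-chest, artificially ventilated dogs were given i.v. carbachol (4-6 µg/kg) or histamine diphosphate (35-45 µg/kg). Test compound was given i.v. mixed with, after, or 1-10 min before the constrictor.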

[2] = tested on: carbachol- or histamine-induced bronchoconstriction; assay: Bronchodilator Test Method I, anesthetized dog, intraduodenal activity; assay type: in vivo; conditions: Canis lupus familiaris, read-out: Bronchodilation; for inhibition in vivo at 0.07 mg/kg: 70 mcg/kg (salt) intraduodenal; for inhibition in vivo at 0.14 mg/kg: 140 mcg/kg (salt) intraduodenal; for inhibition in vivo at 0.28 mg/kg: 280 mcg/kg (salt) intraduodenal
Procedure, shortened: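 Pentobarbital-anesthetized (30 mg/kg i.v.) open-chest dogs of 9-18 kg, artificially ventilated; airway pressure recorded via tracheal cannula transducer. Test solution injected intraduodenally; from 5 min, i.v. carbachol (4-6 μg/kg) or histamine diphosphate (35-45 μg/kg) challenges every 30-60 min gauged degree and duration of bronchodilation.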

[3] = tested on: guinea pig bronchioles constricted by carbachol; assay: Bronchodilator Test Method II, in vitro perfused guinea pig lung
Procedure: In this method bronchodilator activity in vitro was determined by testing the effect of graded doses of the test compounds on guinea pig bronchioles constricted by carbachol, using the technique reported by Sollman and von Oettingen, Proc. Soc, Exp. Biol. Med., 25,692 (1928) as modified by Tainter, Pedden, and James, J. Pharm. Exp. Ther., 51, 371 (1934) and by Luduena, von Euler, Tullar, and Lands, Arch. intern. Pharmacol., III, 392 (1957).

heart rate = assay: Cardiovascular studies: effect on the heart rate in the anesthetized dog; assay type: in vivo
Procedure, shortened: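 Anesthetized dogs, mostly spontaneously breathing, some open-chest, given rapid intravenous injections. Heart rate by electrocardiograph with blood pressure recorded simultaneously, every 0.5-1 minute for 10 minutes then every 2-5 minutes until recovery; several doses or compounds sometimes tested alternately in one dog.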

diastolic blood pressure = assay: Effect on diastolic blood pressure in the anesthetized dog; assay type: in vivo
Procedure: The effect of a rapid intravenous injection on the heart rate the heart rate was conducted in anesthetized dogs under normal respiration. A few open-chest dogs were also tested. Increase in heart rate was measured by using an electrocardiograph attached to the dog. Readings were taken every 0.5-1 minute for the first 10 minutes and every 2-5 minutes thereafter until recovery. In some cases, several doses and more than one compound were tested alternately in the same dog. The blood pressure effect was simultaneously recorded.

[4] = Solubility and pH of salts; conditions: dimethyl sulfoxide, organic solvent or mixture

solubility [4]: ≥ 10000 µg/mL
Structure (SMILES): Cc1ccc(C(=O)Oc2ccc(C(O)CNC(C)(C)C)cc2OC(=O)c2ccc(C)cc2)cc1 (stereo not drawn) [Example 30, 3,4-bis(p-toluyloxy)-alpha-(tert-butylaminomethyl)benzyl alcohol methanesulfonate]
inhibition in vivo at 0.07 mg/kg ([1]; 5 min, 5 min): 54% | inhibition in vivo at 0.14 mg/kg ([1]; 5 min, 5 min): 65% | inhibition in vivo at 0.28 mg/kg ([1]; 5 min, 5 min): 83% | inhibition in vivo at 0.07 mg/kg ([1]; 0.5 h, 30 min): 63% | inhibition in vivo at 0.14 mg/kg ([1]; 0.5 h, 30 min): 76% | inhibition in vivo at 0.28 mg/kg ([1]; 0.5 h, 30 min): 88% | inhibition in vivo at 0.07 mg/kg ([1]; 1 h, 60 min): 61% | inhibition in vivo at 0.14 mg/kg ([1]; 1 h, 60 min): 69% | inhibition in vivo at 0.28 mg/kg ([1]; 1 h, 60 min): 75% | inhibition in vivo at 0.07 mg/kg ([1]; 2 h, 120 min): 52% | inhibition in vivo at 0.14 mg/kg ([1]; 2 h, 120 min): 55% | inhibition in vivo at 0.28 mg/kg ([1]; 2 h, 120 min): 72% | inhibition in vivo at 0.14 mg/kg ([1]; 3 h, 180 min): 62% | inhibition in vivo at 0.28 mg/kg ([1]; 3 h, 180 min): 64% | inhibition in vivo at 0.07 mg/kg ([1]; 4 h, 240 min): 37% | inhibition in vivo at 0.28 mg/kg ([1]; 4 h, 240 min): 50% | inhibition in vivo at 0.14 mg/kg ([1]; 4.5 h, 270 min): 42% | inhibition in vivo at 0.07 mg/kg ([2]; 10 min, 10 min, mean of 3 dogs): 38% | inhibition in vivo at 0.14 mg/kg ([2]; 10 min, 10 min): 30% | inhibition in vivo at 0.28 mg/kg ([2]; 10 min, 10 min): 75% | inhibition in vivo at 0.07 mg/kg ([2]; 0.5 h, 30 min): 45% | inhibition in vivo at 0.14 mg/kg ([2]; 0.5 h, 30 min): 35% | inhibition in vivo at 0.28 mg/kg ([2]; 0.5 h, 30 min): 71% | inhibition in vivo at 0.07 mg/kg ([2]; 1 h, 60 min): 42% | inhibition in vivo at 0.14 mg/kg ([2]; 1 h, 60 min): 36% | inhibition in vivo at 0.28 mg/kg ([2]; 1 h, 60 min, mean of 3 dogs): 64% | inhibition in vivo at 0.07 mg/kg ([2]; 2 h, 120 min, mean of 3 dogs): 42% | inhibition in vivo at 0.14 mg/kg ([2]; 2 h, 120 min): 45% | inhibition in vivo at 0.28 mg/kg ([2]; 2 h, 120 min): 56% | inhibition in vivo at 0.07 mg/kg ([2]; 3 h, 180 min): 42% | inhibition in vivo at 0.14 mg/kg ([2]; 3 h, 180 min): 40% | inhibition in vivo at 0.28 mg/kg ([2]; 3 h, 180 min): 50% | inhibition in vivo at 0.07 mg/kg ([2]; 4 h, 240 min, mean of 3 dogs): 25% | inhibition in vivo at 0.14 mg/kg ([2]; 4 h, 240 min): 47% | inhibition in vivo at 0.28 mg/kg ([2]; 4 h, 240 min, mean of 3 dogs): 45% | inhibition in vivo at 0.28 mg/kg ([2]; 5 h, 300 min, mean of 3 dogs): 37% | ED50 ([3]; carbachol (Doryl) 1:5 million): 3.2 µg (base) | Duration, Mean ([3]; dose 10 mcg (base)): 60 ± 9.6 min | Mean Maximal Increase in the Heart Rate (heart rate; 70 mcg/kg (salt) i.v.): 9% | Mean Maximal Increase in the Heart Rate (heart rate; 140 mcg/kg (salt) i.v.): 15% | Mean Maximal Increase in the Heart Rate (heart rate; 280 mcg/kg (salt) i.v.): 28% | Mean Decrease in Diastolic Blood Pressure (diastolic blood pressure; 70 meg/kg (salt) i.v.): 2% | Mean Decrease in Diastolic Blood Pressure (diastolic blood pressure; 140 meg/kg (salt) i.v.): 11% | Mean Decrease in Diastolic Blood Pressure (diastolic blood pressure; 280 meg/kg (salt) i.v.): 11.5%

Source: patent publication USRE30241E, “Esters of 3-(hydroxy or hydroxymethyl)-4-hydroxyphenyl aminomethyl ketones” (Sterling Drug Inc., priority 1970, dated 1980)
